In patent US6869929B2, “Use of transcription factors for treating inflammation and other diseases” (Beth Israel Deaconess Medical Center, priority 2000, dated 2005):

System: COL2A1 promoter
Test: COL2A1 promoter/intron deletion constructs, transient transfection in C-28/I2 cells
Format: cell-based, human
Conditions: all five constructs -577, -530, -403, -131, -83/+127 bp, 18 h
Experimental: The COL2A1 sequence spanning −577 to +3428 bp (Goldring M B, et al, J Cell Biochem 1994;54:85-99, 39) was cloned into the pGL2-basic (pGL2B) luciferase reporter gene vector (Promega,) and named pGL2-COL2/4.0. Deletion constructs containing −577/+125 bp, −131/+125 bp, −87/+125 bp were prepared by enzyme digestion of pGL2-COL2/4.0 using PstI, ApaI, and PuuII, followed by ligation. For the deletion constructs −45/+125 bp, −83/+7 bp, and −45/+7 bp, PCR products were generated as described (Osaki et al.) and cloned into the pGL2-Basic luciferase vector. These reporter constructs were used as templates to generate point mutations or internal deletions by PCR mutagenesis employing the oligonucleotides listed in FIG. 16 and the QuikChange™ Site-Directed Mutagenesis Kit (Stratagene, La Jolla, Calif.). DNA fragments containing point mutations were then cloned into the pGL2B vector and confirmed by DNA sequencing using a G2 primer on pGL2 DNA. Deletions were also made in the −577/+127 bp COL2A1 promoter construct using the ExSite™ PCR-Based Site-Directed Mutagenesis Kit (Stratagene).
Transient transfection experiments were carried out in C-28/I2 cells using LipofectAMINE PLUS™ Reagent (Life Technologies). Cells were seeded in 6-well tissue culture plates at 3.5×10^5 cells/well in DMEM/F12 containing 10% FCS 24 h prior to transfection. For each well, 1 μg of COL2A1-luciferase construct, 6 μl of PLUS reagent and 92 μl of serum-free DMEM/F12 were mixed and incubated for 15 min at room temperature. LipofectAMINE+ reagent (4 μl) in 100 μl of serum-free medium was then added to each reaction mixture and incubation was continued for an additional 30 min at room temperature. Finally, the transfection mixture was combined with 800 μl of serum-free medium and the lipid-nucleic acid complex was transferred to the washed cell monolayer in each well. After incubation for 4 h at 37° C., the transfection mix was diluted with an equal volume of DMEM/F12 containing 2% Nutridoma-SP, and incubation continued for 18 h in the absence or presence of IL-1β. […] Cell lysates were prepared by extraction with 200 μl of Reporter Lysis Buffer (Promega) and the protein content was determined using the Coomassie Plus Protein Assay Reagent (PIERCE). Luciferase activities were determined by chemiluminescence assay using the Autolumat LB953 luminometer (EG&G Berthold, Oak Ridge, Tenn.), normalized to the amount of protein. Each data point was calculated as the mean±standard deviation for three independently transfected cultures from one representative of at least three experiments. […]
To localize the responses to IL-1β and ESE-1 in the COL2A1 promoter, we made several 5′-deletions of the −577/+127 bp promoter construct, which we had previously determined to be responsive to IL-1β.

IL-1β: interleukin-1 beta, proinflammatory cytokine
inhibition of COL2A1 promoter constructs: at least 50%
